These results are taken from ChEMBL document CHEMBL1201862, “PubChem BioAssay data set” (2004).

Among the test systems are 786-0; A498; ACHN; CAKI-1; HCT-116; HCT-15; HOP-62; IGROV-1; K562; KM12; MDA-MB-435; MDA-N; NCI-H460; OVCAR-5; RPMI-8226; SK-MEL-5; SN12C; TK-10.
Test in all cases: NCI tumour cell line growth inhibition, 48 h

The structures appear in SMILES notation.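 96-well plates; 48 h exposure; 5 concentrations. Endpoints by linear interpolation between flanking doses. Not reached: highest tested concentration assigned. GI50 is the concentration that inhibits growth by half.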 Active and inactive are the calls of the source. Rule as the data show it: active = GI50 up to about 1.1 µM and inactive = higher.

As to `O=C1CCC(c2ccccc2)(c2ccccc2)CC1`, the GI50 is > 100 µM (inactive) with 786-0; > 100 µM (inactive) with A498; > 100 µM (inactive) in the experiment with ACHN; > 100 µM (inactive) with CAKI-1; 41.3 µM (inactive) with HCT-116; 47.4 µM in the experiment with HCT-15. Further, the GI50 in the experiment on HOP-62 is > 100 µM (inactive); in the experiment on IGROV-1, > 100 µM (inactive); with K562 it was 29.7 µM (inactive); with KM12, > 100 µM (inactive); in the experiment on MDA-MB-435, > 100 µM (inactive); in the experiment on MDA-N, 45.6 µM (inactive). Besides, the GI50 is > 100 µM (inactive) in the experiment on NCI-H460; > 100 µM (inactive) in the experiment on OVCAR-5; 30.7 µM (inactive) in the experiment on RPMI-8226; 30.7 µM (inactive) in the experiment on SK-MEL-5; 38.1 µM (inactive) in the experiment with SN12C; 85.9 µM (inactive) with TK-10.
On to `Nc1ncnc2c1ccn2C1OC2COP(=O)(O)OC2C1O` (stereo unspecified), for which the GI50 with 786-0 is 0.281 µM (active); in the experiment with A498, 1.15 µM (inactive); in the experiment on ACHN it was 0.0412 µM (active); in the experiment on CAKI-1, 0.0904 µM (active); with HCT-116, 0.17 µM (active); in the experiment on HCT-15, 0.152 µM. Also, the GI50 in the experiment on HOP-62 is 0.501 µM (active); in the experiment on IGROV-1, 0.488 µM (active); in the experiment on K562, 0.261 µM (active); in the experiment on KM12, 0.363 µM (active); in the experiment on MDA-MB-435, 0.273 µM (active); in the experiment with MDA-N, 0.379 µM (active). For the same molecule, the GI50 with NCI-H460 is 0.168 µM (active); in the experiment with OVCAR-5 it was 0.849 µM (active); in the experiment on RPMI-8226, 0.124 µM (active); in the experiment with SK-MEL-5, 0.327 µM (active); in the experiment with SN12C, 0.207 µM (active); with TK-10 it was 0.25 µM (active).
As for `Cn1c2c(c3c(=O)[nH]ncc31)CCc1ccccc1-2`, the GI50 with 786-0 was 25.4 µM (inactive); with A498, 16.3 µM (inactive); in the experiment with ACHN, 25.4 µM (inactive); in the experiment with CAKI-1, 32.1 µM (inactive); in the experiment on HCT-116, 20.1 µM (inactive); in the experiment on HCT-15 it was 24.8 µM. In addition, the GI50 was 78.5 µM (inactive) with HOP-62; 19 µM (inactive) in the experiment with IGROV-1; 29.8 µM (inactive) with K562; 23 µM (inactive) in the experiment on KM12; 32.1 µM (inactive) with MDA-MB-435; 25.9 µM (inactive) with MDA-N. Moreover, the GI50 with NCI-H460 was 16 µM (inactive); with OVCAR-5, 45.6 µM (inactive); in the experiment on RPMI-8226 it was 25.5 µM (inactive); with SK-MEL-5, 17.8 µM (inactive); in the experiment with SN12C it was 34.8 µM (inactive); in the experiment with TK-10, 17.7 µM (inactive).
`CC(=O)OC1[C@@H](OC(C)=O)CN(OCc2ccccc2)C[C@H]1OC(C)=O` (stereo partly specified): the GI50 was > 100 µM (inactive) in the experiment with 786-0; > 100 µM (inactive) with A498; > 100 µM (inactive) with ACHN; > 100 µM (inactive) in the experiment with CAKI-1; > 100 µM (inactive) with HCT-116; more than 100 µM with HCT-15. Also, the GI50 in the experiment with HOP-62, with IGROV-1, with K562, with KM12, in the experiment with MDA-MB-435 and with MDA-N was > 100 µM (inactive) each time. Moreover, the GI50 in the experiment on NCI-H460, with OVCAR-5, with RPMI-8226, in the experiment with SK-MEL-5, in the experiment on SN12C and in the experiment on TK-10 was > 100 µM (inactive) in each case.
With `COc1cc2c(cc1OC)C1C=NC(C2)c2cc(OC)c(OC)cc21` (stereo unspecified), the GI50 with 786-0 is > 100 µM (inactive); with A498 it was > 100 µM (inactive); in the experiment on ACHN, > 100 µM (inactive); in the experiment on CAKI-1 it was 97.7 µM (inactive); in the experiment on HCT-116, > 100 µM (inactive); in the experiment on HCT-15, 85.9 µM. In addition, the GI50 in the experiment with HOP-62 is > 100 µM (inactive); with IGROV-1, 96.4 µM (inactive); in the experiment with K562 it was 54.2 µM (inactive); with KM12, > 100 µM (inactive); in the experiment with MDA-MB-435 it was > 100 µM (inactive); with MDA-N, > 100 µM (inactive). In addition, the GI50 is > 100 µM (inactive) in the experiment with NCI-H460; > 100 µM (inactive) with OVCAR-5; 60.3 µM (inactive) in the experiment with RPMI-8226; 40.5 µM (inactive) with SK-MEL-5; > 100 µM (inactive) with SN12C; > 100 µM (inactive) with TK-10.
Regarding `Cc1nc2c(Cl)cc(Cl)cc2c2c1CCO2`, the GI50 in the experiment on 786-0 is > 100 µM (inactive); with A498, 67.1 µM (inactive); in the experiment on ACHN, > 100 µM (inactive); in the experiment with CAKI-1 it was 23.3 µM (inactive); with HCT-116, > 100 µM (inactive); in the experiment on HCT-15 it was more than 100 µM. Moreover, the GI50 with IGROV-1, in the experiment on K562, in the experiment with KM12, with MDA-MB-435, with MDA-N and with NCI-H460 was > 100 µM (inactive) in each case. Further, the GI50 in the experiment on OVCAR-5, in the experiment with RPMI-8226, with SK-MEL-5, in the experiment with SN12C and in the experiment on TK-10 was > 100 µM (inactive) in each case.
Regarding `O=c1c2ncn(C3CC(O)C(CO)O3)c2nnn1Cc1ccccc1[N+](=O)[O-]` (stereo unspecified), the GI50 is > 100 µM (inactive) with 786-0; > 100 µM (inactive) with A498; > 100 µM (inactive) in the experiment with ACHN; > 100 µM (inactive) in the experiment on CAKI-1; > 100 µM (inactive) with HCT-116; more than 100 µM with HCT-15. Also, the GI50 in the experiment with HOP-62, with IGROV-1, in the experiment on K562, with KM12, in the experiment on MDA-MB-435 and in the experiment on MDA-N was > 100 µM (inactive) throughout. The GI50 with NCI-H460, in the experiment with OVCAR-5, in the experiment with RPMI-8226, in the experiment with SK-MEL-5, in the experiment on SN12C and with TK-10 was > 100 µM (inactive) throughout.
Turning to `CC(=O)c1ccc2c(c1)N(CCCN1CCN(CCO)CC1)c1ccccc1C2`, the GI50 with 786-0 was 16.9 µM (inactive); in the experiment with A498, 15.7 µM (inactive); with ACHN it was 20.3 µM (inactive); in the experiment on CAKI-1 it was 13.6 µM (inactive); in the experiment with HCT-116 it was 16.3 µM (inactive); in the experiment with HCT-15 it was 14.4 µM. Besides, the GI50 in the experiment on HOP-62 is 15.3 µM (inactive); with IGROV-1 it was 17.3 µM (inactive); with K562, 13.5 µM (inactive); with KM12 it was 15.5 µM (inactive); in the experiment with MDA-MB-435, 8.71 µM (inactive); in the experiment on MDA-N, 13 µM (inactive). The GI50 is 15.8 µM (inactive) in the experiment on NCI-H460; 17.2 µM (inactive) in the experiment on OVCAR-5; 12.9 µM (inactive) with RPMI-8226; 12.2 µM (inactive) with SK-MEL-5; 16.9 µM (inactive) with SN12C; 14.7 µM (inactive) in the experiment with TK-10.
In the case of `O=C(NC1(c2cc3ccccc3s2)CCCCC1)C1CCC1`, the GI50 was > 100 µM (inactive) in the experiment with 786-0; > 100 µM (inactive) in the experiment on A498; > 100 µM (inactive) in the experiment on ACHN; > 100 µM (inactive) in the experiment on CAKI-1; > 100 µM (inactive) in the experiment with HCT-116; more than 100 µM in the experiment with HCT-15. For the same molecule, the GI50 in the experiment on HOP-62, with IGROV-1, with K562, with KM12, in the experiment on MDA-MB-435 and with MDA-N was > 100 µM (inactive) throughout. For the same molecule, the GI50 in the experiment on NCI-H460, in the experiment on OVCAR-5, with RPMI-8226, in the experiment with SK-MEL-5, in the experiment with SN12C and with TK-10 was > 100 µM (inactive) in each case.
With `Cn1c(=O)c2[nH]c(N/N=C3/SCC(=O)N3Cc3ccccc3)nc2n(C)c1=O`, the GI50 is 27 µM (inactive) in the experiment on 786-0; > 100 µM (inactive) with A498; > 100 µM (inactive) in the experiment on ACHN; > 100 µM (inactive) in the experiment with CAKI-1; 45.4 µM (inactive) in the experiment on HCT-116; more than 100 µM with HCT-15. Also, the GI50 in the experiment on HOP-62 was > 100 µM (inactive); in the experiment on IGROV-1, > 100 µM (inactive); in the experiment with K562 it was 30.5 µM (inactive); in the experiment on KM12 it was 48.2 µM (inactive); with MDA-MB-435, 19.1 µM (inactive); in the experiment with MDA-N it was 16.4 µM (inactive). For the same molecule, the GI50 in the experiment with NCI-H460 is > 100 µM (inactive); in the experiment on OVCAR-5, 19 µM (inactive); in the experiment with RPMI-8226, 42.4 µM (inactive); in the experiment with SK-MEL-5 it was 34.9 µM (inactive); with SN12C, > 100 µM (inactive); in the experiment on TK-10, > 100 µM (inactive).
`CC(C)C(C/C=C1\CC(CO)(COC(=O)C2CCCCC2)OC1=O)C(C)C` (stereo unspecified): the GI50 was 13.7 µM (inactive) with 786-0; 44.8 µM (inactive) with A498; 16 µM (inactive) in the experiment with ACHN; 18.7 µM (inactive) in the experiment on CAKI-1; 19.2 µM (inactive) in the experiment with HCT-116; 21.7 µM in the experiment on HCT-15. Further, the GI50 with HOP-62 is 13.2 µM (inactive); in the experiment with IGROV-1, 22.9 µM (inactive); with K562, 6.25 µM (inactive); with KM12, 18.4 µM (inactive); in the experiment with MDA-MB-435 it was 44.8 µM (inactive); in the experiment with MDA-N, 24.1 µM (inactive). For the same molecule, the GI50 with NCI-H460 was 24.4 µM (inactive); with OVCAR-5 it was 20 µM (inactive); in the experiment with SK-MEL-5, 31.6 µM (inactive); with SN12C it was 16.7 µM (inactive); with TK-10, 21 µM (inactive).
